# Values quoted from earlier work, collected in article PMC7168327, “Designed Antimicrobial Peptides for Topical Treatment of Antibiotic Resistant Acne Vulgaris” (Antibiotics, 2020).
# Legend:
# Settings in all cases: cited from earlier work
# C. acnes HL072PA1 = system: C. acnes HL072PA1
# Text: (§1) Table 1 Growth Inhibition of dAMPs (MICs, µg/mL) against C. acnes Isolates. | column: Antibiotic Sensitivity / Tetra ^#; Antibiotic Sensitivity / Ery ^#; Antibiotic Sensitivity / Clind ^#
# C. acnes HL082PA2 = system: C. acnes HL082PA2
# Text: as §1
# C. acnes HL056PA1 = system: C. acnes HL056PA1
# Text: as §1
# C. acnes HL013PA1 = system: C. acnes HL013PA1
# Text: as §1
# C. acnes HL007PA1 = system: C. acnes HL007PA1
# Text: as §1
# C. acnes HL045PA1 = system: C. acnes HL045PA1
# Text: as §1
# C. acnes ATCC6919 = system: C. acnes ATCC6919
# Text: as §1
# C. acnes HL038PA1 = system: C. acnes HL038PA1
# Text: as §1
# C. acnes HL043PA2 = system: C. acnes HL043PA2
# Text: as §1
# C. acnes ATCC11827 = system: C. acnes ATCC11827
# Text: as §1
# C. acnes HL043PA1 = system: C. acnes HL043PA1
# Text: as §1
# C. acnes HL053PA1 = system: C. acnes HL053PA1
# Text: as §1
structure (smiles),measurement,setting,value
"CN(C)[C@@H]1C(O)=C(C(N)=O)C(=O)[C@@]2(O)C(O)=C3C(=O)c4c(O)cccc4[C@@](C)(O)[C@H]3C[C@@H]12 [Tetra, tetracycline]","Antibiotic Sensitivity, Tetra",C. acnes HL072PA1,"R (resistance to tetracycline (Tetra), MIC ≥ 1.0 μg/mL)"
same,"Antibiotic Sensitivity, Tetra",C. acnes HL082PA2,"R (resistance to tetracycline (Tetra), MIC ≥ 1.0 μg/mL)"
same,"Antibiotic Sensitivity, Tetra",C. acnes HL056PA1,"R (resistance to tetracycline (Tetra), MIC ≥ 1.0 μg/mL)"
same,"Antibiotic Sensitivity, Tetra",C. acnes HL013PA1,"R (resistance to tetracycline (Tetra), MIC ≥ 1.0 μg/mL)"
same,"Antibiotic Sensitivity, Tetra",C. acnes HL007PA1,"R (resistance to tetracycline (Tetra), MIC ≥ 1.0 μg/mL)"
same,"Antibiotic Sensitivity, Tetra",C. acnes HL045PA1,"R (resistance to tetracycline (Tetra), MIC ≥ 1.0 μg/mL)"
same,"Antibiotic Sensitivity, Tetra",C. acnes ATCC6919,"S (S, sensitive)"
same,"Antibiotic Sensitivity, Tetra",C. acnes HL038PA1,"R (resistance to tetracycline (Tetra), MIC ≥ 1.0 μg/mL)"
same,"Antibiotic Sensitivity, Tetra",C. acnes HL043PA2,"R (resistance to tetracycline (Tetra), MIC ≥ 1.0 μg/mL)"
same,"Antibiotic Sensitivity, Tetra",C. acnes ATCC11827,"S (S, sensitive)"
same,"Antibiotic Sensitivity, Tetra",C. acnes HL043PA1,"R (resistance to tetracycline (Tetra), MIC ≥ 1.0 μg/mL)"
same,"Antibiotic Sensitivity, Tetra",C. acnes HL053PA1,"R (resistance to tetracycline (Tetra), MIC ≥ 1.0 μg/mL)"
"CCC[C@@H]1C[C@@H](C(=O)N[C@@H]([C@H]2O[C@H](SC)[C@H](O)[C@@H](O)[C@H]2O)[C@H](C)Cl)N(C)C1 [Clind, clindamycin]","Antibiotic Sensitivity, Clind",C. acnes HL072PA1,R (Antibiotic resistance to clindamycin defined by MIC ≥ 32 μg/mL)
same,"Antibiotic Sensitivity, Clind",C. acnes HL082PA2,"S (S, sensitive)"
same,"Antibiotic Sensitivity, Clind",C. acnes HL056PA1,R (Antibiotic resistance to clindamycin defined by MIC ≥ 32 μg/mL)
same,"Antibiotic Sensitivity, Clind",C. acnes HL013PA1,R (Antibiotic resistance to clindamycin defined by MIC ≥ 32 μg/mL)
same,"Antibiotic Sensitivity, Clind",C. acnes HL007PA1,R (Antibiotic resistance to clindamycin defined by MIC ≥ 32 μg/mL)
same,"Antibiotic Sensitivity, Clind",C. acnes HL045PA1,R (Antibiotic resistance to clindamycin defined by MIC ≥ 32 μg/mL)
same,"Antibiotic Sensitivity, Clind",C. acnes ATCC6919,"S (S, sensitive)"
same,"Antibiotic Sensitivity, Clind",C. acnes HL038PA1,R (Antibiotic resistance to clindamycin defined by MIC ≥ 32 μg/mL)
same,"Antibiotic Sensitivity, Clind",C. acnes HL043PA2,R (Antibiotic resistance to clindamycin defined by MIC ≥ 32 μg/mL)
same,"Antibiotic Sensitivity, Clind",C. acnes ATCC11827,"S (S, sensitive)"
same,"Antibiotic Sensitivity, Clind",C. acnes HL043PA1,R (Antibiotic resistance to clindamycin defined by MIC ≥ 32 μg/mL)
same,"Antibiotic Sensitivity, Clind",C. acnes HL053PA1,R (Antibiotic resistance to clindamycin defined by MIC ≥ 32 μg/mL)
